SMILES strings stand for the structures. Like-named read-outs stand apart in the source and are kept apart here.

For data set [1] the following is noted: particles with dimensions of less than 100 μm. The source says:
The level of the fine particles is defined as the percentage by weight of the particles with dimensions of less than 100 μm.
Particles which pass through a sieve having a mesh size of 100 μm are regarded according to the invention as fine particles.

The conditions of data set [2]: stirred, final concentration 4.8% by weight. As to the method:
These measurements correspond to a test which consists in measuring the time necessary to dissolve said amount in water maintained at ambient temperature (20° C.) and kept stirred, for example using a propeller stirrer with 4 inclined blades.

For data set [3] the following is noted: undried product. As to the method:
The densities are measured on an undried product according to the test described in the European Phatmacopeia standard [Volume 1, p. 256 (2004), 5th edition], with the only difference that the 250 ml of test specimen is replaced by a 1 liter test specimen.

The conditions of data set [4]: final concentration 2% by weight. How it is done:
A similar test is carried out in order to determine the rate of dissolution of the flakes in acrylic acid.
The test consists in defining the time necessary to dissolve the amount of flakes necessary in order to obtain a final concentration of hydroquinone in the acrylic acid of 2% by weight.

For data set [5] the following is noted: sieve mesh size 2.5 mm. An excerpt:
In order to define the particle size of the product of the invention, the percentage by weight of the particles with dimensions of less than 2.5 mm, that is to say particles which pass through a sieve having a mesh size of 2.5 mm, is also defined.

For the compound `Oc1ccc(O)cc1` [Example 3, hydroquinone], the “% by weight of particles passing through a sieve with a mesh size of 100 μm (level of fine particles)” value (“% by weight … (level of fine particles)” below) in data set [1] is given as 0.9% by weight. Also, the “Dissolution time in water at 20° C. (production of a 4.8% by weight solution)” value in data set [2] is given as 18 min. For the same compound, in data set [3], the Loose bulk density came to 0.48 g/mL and the Tapped bulk density was 0.67 g/mL. For the same compound, in data set [4], the “Dissolution time in acrylic acid at 20° C. (production of a 2.0% by weight solution)” value turned out to be 35 min.
`Oc1ccc(O)cc1` [Example 4, hydroquinone]: in data set [1], the “% by weight … (level of fine particles)” value was 0.8% by weight. The “Dissolution time in water at 20° C. (production of a 4.8% by weight solution)” value in data set [2] was 14 min. In data set [3], this compound came in with a Loose bulk density of 0.46 g/mL and a Tapped bulk density of 0.61 g/mL. In addition, the “Dissolution time in acrylic acid at 20° C. (production of a 2.0% by weight solution)” value in data set [4] is given as 30 min.
Taken in the same sequence, the figures for `Oc1ccc(O)cc1` [Example 2, hydroquinone] were 0.7% by weight, 15 min, 0.47 g/mL, 0.65 g/mL and 30 min.
`Oc1ccc(O)cc1` [Example 5, hydroquinone]: the “% by weight … (level of fine particles)” value in data set [1] is 0.9% by weight. In addition, the “Dissolution time in water at 20° C. (production of a 4.8% by weight solution)” value in data set [2] turned out to be 14 min. In data set [3], this compound displayed a Loose bulk density of 0.53 g/mL and a Tapped bulk density of 0.66 g/mL. For the same compound, the “Dissolution time in acrylic acid at 20° C. (production of a 2.0% by weight solution)” value in data set [4] is given as 30 min.
With `Oc1ccc(O)cc1` [Example 1, hydroquinone], in data set [1], the “% by weight … (level of fine particles)” value was 0.8% by weight. In data set [2], the “Dissolution time in water at 20° C. (production of a 4.8% by weight solution)” value turned out to be 21 min. In addition, in data set [3], the Loose bulk density is 0.52 g/mL and the Tapped bulk density stood at 0.70 g/mL. For the same compound, the “Dissolution time in acrylic acid at 20° C. (production of a 2.0% by weight solution)” value in data set [4] stood at 45 min.
Turning to `Oc1ccc(O)cc1` [hydroquinone powder, hydroquinone], the “% by weight … (level of fine particles)” value in data set [1] (listed as hydroquinone in the powder form) is roughly 20 % by weight. The “Dissolution time in water at 20° C. (production of a 4.8% by weight solution)” value in data set [2] was 9 min. In addition, the “percentage by weight of the particles with dimensions of less than 2.5 mm” value in data set [5] came out at 100 % by weight. In addition, the “Dissolution time in acrylic acid at 20° C. (production of a 2.0% by weight solution)” value in data set [4] is 20 min.
